Assay results as given in patent US8148100B2, “Mina53 assays” (ISIS Innovation Limited, priority 2005, dated 2012).

Experiments:
Mina53(A26-V465) [1] = target: T1, Mina53(A26-V465) (Homo sapiens, UniProt Q8IUF8, A386T); assay: [14C] labelled 2-OG decarboxylation assay (uncoupled 2-OG turnover, 14CO2 release); type: biochemical; settings: for inhibition of uncoupled 2-OG turnover by small molecules (in words): final concentration of 1 mM; for 2OG turnover: truncated Mina53 A26-V465 with Fe(II) and ascorbate, 16 nm 2-OG initially present, 37° C., 20 minutes
T1 construct: A N-terminal truncation of Mina53 A26-V465 cloned into pNIC28-Bsa4 was supplied by the Structural Genomics Consortium Oxford; His-tag (polyhistidine, TEV-cleavable, from pNIC28-Bsa4) (N, cleaved yes); made in house; host or cells: E. coli BL21(DE3)
Procedure: Once purified full-length His-Mina53 had been obtained it was tested for 2-OG oxygenase activity. A standard assay for this family of enzymes involves the use of [^14C] labelled 2-OG co-substrate. Upon reaction, the ^14C label is released as 14CO2 gas (old FIG. 2).
The ^14CO2 gas is then trapped using a strong base and quantified by liquid scintillation. The level of uncoupled turnover of 2-OG oxygenases can be increased by the use of a reducing agent, e.g. ascorbate. Many other assays for 2-OG oxygenases are well known, e.g. those based on oxygen consumption, succinate production or oxidation of the “prime substrate” (McNeill et al (2005) Anal. Biochem. 336, 125-31; Sabourin & Bieber (1982) J. Biol. Chem. 257, 7460-7; and Cunliffe et al. (1986) Biochem. J. 240, 617-9).
As noted above, many of the enzymes in the family catalyse the decarboxylation of 2-OG in the absence of a suitable prime substrate, albeit at a reduced rate. This activity is sometimes termed as uncoupled turnover. The protocol used for the 2-OG assay decarboxylation is based on the method used to measure [^14CO2] release by α-ketoisocaproate oxygenase (Sabourin & Bieber (1982) J. Biol. Chem. 257, 7460-7). Standard assay conditions consisted of a total volume of 100 μl, 50 mM Tris-HCl pH 7.5, 4 mM ascorbate, 160 μM 2OG (5% 1-[^14C]), 80 μM FeSO4.6H2O, 0.48 mg·ml^−1 catalase, 10 μM Mina53. Four stocks were made: (a) Mina53 (b) Fe(II) (c) ascorbate and, (d) all other reagents. Assays were started by mixing components (a) to (d). A tube containing 200 μl hyamine hydroxide was added and the vial sealed. The assays were incubated at 37° C. for 20 minutes then quenched with methanol (200 μl). Reaction tubes were then left on ice for 30 mins to collect [^14CO2] gas, before the hyamine hydroxide was removed and treated with scintillant solution for counting (Beckman, LS6500). Assays were performed in triplicate unless otherwise stated. When potential small molecule inhibitors were added, they were mixed to stock (d) to a final concentration of 1 mM in Tris 50 mM, pH 7.9 buffer. To investigate inhibition of Mina53 by metals other than Fe(II), NiCl2 and ZnCl2 were added separately to the assay mixture to a final concentration of 80 μM.
Using this [^14C] labelled 2-OG assay (16 nm of 2-OG was initially present in the assay mixture), the level of uncoupled turnover for Mina53 was measured under standard catalytic conditions (16 nm of 2-OG was initially present in the assay mixture), in the absence of Fe(II), in the absence of ascorbate and in the presence on N-oxalylglycine (NOG) a ubiquitous inhibitor for the 2-OG dependent non-haem Fe(II) oxygenases^16.

Mina53(A26-V465) [2] = target: T1, Mina53(A26-V465); assay: as above; type: biochemical; settings: His-Mina53, absence of prime substrate
[3] = final assay concentration of 80 μM

T1 sequence (Q8IUF8 26-465 A386T): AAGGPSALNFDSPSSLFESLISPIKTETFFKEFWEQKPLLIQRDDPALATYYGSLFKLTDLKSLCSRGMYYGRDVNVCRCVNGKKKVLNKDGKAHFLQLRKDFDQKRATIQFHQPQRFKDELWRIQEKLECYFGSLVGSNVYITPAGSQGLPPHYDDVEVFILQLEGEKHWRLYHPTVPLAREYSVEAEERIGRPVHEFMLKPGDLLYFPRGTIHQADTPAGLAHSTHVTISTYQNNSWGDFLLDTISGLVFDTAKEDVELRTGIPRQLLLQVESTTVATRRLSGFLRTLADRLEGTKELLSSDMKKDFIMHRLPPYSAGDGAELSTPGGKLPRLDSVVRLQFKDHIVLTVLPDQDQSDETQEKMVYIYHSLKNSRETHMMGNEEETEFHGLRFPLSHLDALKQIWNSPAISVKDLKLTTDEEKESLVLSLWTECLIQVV

Compound	inhibition of uncoupled 2-OG turnover by small molecules (in words) (Mina53(A26-V465) [1])	2OG turnover (Mina53(A26-V465) [1]; small molecule added at 1 mM) [nm]	decarboxylation of 2-OG by His-Mina53 in the presence of inhibitor (in words) (Mina53(A26-V465) [2])	inhibition of Mina53 mediated oxidation of 2OG by metals other than Fe(II) (in words) (Mina53(A26-V465) [1]; [3])	2OG turnover (Mina53(A26-V465) [1]; metal salt added at 80 μM) [nm]	relative inhibitory potency, Ni versus Zn (in words) (Mina53(A26-V465) [1]; [3])
CCC(=O)C1C(=O)CC(C(=O)O)CC1=O (stereo not shown) [Prohexadione, prohexadione]	inhibit uncoupled 2-OG turnover	0.17 ± 0.12				
O=C(O)CNC(=O)C(=O)O [NOG, N-oxalylglycine]	inhibit uncoupled 2-OG turnover	0.47 ± 0.12	inhibited			
fumarate	inhibit uncoupled 2-OG turnover	0.58 ± 0.09				
[Cl][Ni][Cl] [NiCl2]				inhibit 2OG turnover	2 ± 0.23	
O=C(O)C(=O)NC(Cc1ccccc1)C(=O)O [NOFD, N-oxalyl D-phenylalaninie]	did not significantly reduce it	3.86 ± 0.05				
[Cl-].[Cl-].[Zn+2] [ZnCl2]				inhibit 2OG turnover	0.93 ± 0.17	more potent inhibitor
O=C(O)CNC(=O)c1nc(Cl)c2ccccc2c1O [BB231]	did not significantly reduce it	3.18 ± 0.03				
